From US7074938B2, “Method for the synthesis of soritin compounds” (The Regents of the University of California, priority 2002, dated 2006)
Marks after values point to notes of the source that are not given here.

How the values were obtained:
Format in all cases: in vivo
[1] = tested on: RTX-induced edema of the mouse ear; test: Inhibition of resiniferatoxin (RTX)-induced inflammation (edema) of the mouse ear; settings: 30 min
Experimental: Induction of mouse ear edema can be conducted according to known methods. See Inoue, 1-f., N. Nagata, Y. Koshffiara (1993), which is herein incorporated by reference. Soritin compounds to be tested for anti-neurogenic inflammatory activity are topically applied in acetone to the ears of mice in a solution that includes the edema-causing irritant resiniferatoxin (RTX). RTX alone (0.1 μg/ear) or in combination with various dilutions of test compound are applied to both sides of the left ears (5 mice per treatment group) and acetone is applied to all right ears. After a 30-minute incubation, the mice are sacrificed, the ears removed, and bores taken and weighed. Edema is measured by subtracting the weight of the right ear (acetone control) from the weight of the left ear (treated). Results are recorded as % decrease (inhibition) or % increase (potentiation) in edema relative to the control group edema.
Soritin B was tested for anti-neurogenic inflammatory activity by topically applying in acetone to the ears of mice in a solution that includes the edema-causing irritant resiniferatoxin (RTX) as provided above. See Inoue, 1-f., N. Nagata, Y. Koshffiara (1993), which is herein incorporated by reference. Specifically, RTX alone (0.1 μg/ear) or in combination with various dilutions of Soritin B was applied to both sides of the left ears (5 mice per treatment group) and acetone was applied to all right ears. After a 30-minute incubation, the mice are sacrificed, the ears removed, and bores taken and weighed. Edema was measured by subtracting the weight of the right ear (acetone control) from the weight of the left ear (treated). Results were recorded as % decrease (inhibition) or % increase (potentiation) in edema relative to the control group edema.

[2] = tested on: test ears of mice; test: Soritin B coloration and irritation when applied to mouse ear skin
[3] = tested on: PMA-induced edema of the mouse ear; test: Inhibition of PMA-induced inflammation (edema) of the mouse ear; settings: 3 h 20 min, in mg (unit assumed)
Experimental: (§1) The test compound made by the method of the present invention and a known inflammatory agent, phorbol myristate acetate (PMA), are topically applied simultaneously to the left ears of mice. Three hours and 20 minutes following application, the mice are sacrificed. Both left ears and right ears are removed and standard sized bores taken. Edema (inflammation) is measured as the difference in weight between left and right ears. See Van Arman, C. G. (1974) Clin. Pharmacol. Ther. 16:900–904, which is herein incorporated by reference.
as §1, with “Soritin B and” for “The test compound made by the method of the present invention and”, “(PMA), were” for “(PMA), are”, “mice were” for “mice are”, “ears were” for “ears are”, “(inflammation) was” for “(inflammation) is”

With `COC(=O)C(c1c[nH]c2ccccc12)c1c[nH]c2ccccc12` [Soritin B, bis-(1H-indol-3-yl)-acetic acid methyl ester] the “Mean edema (weight of left ear minus right ear bores)” value ([1]; 3.12 μg/ear topical in acetone with RTX 0.1 μg/ear) was 9.1, the “Mean edema (weight of left ear minus right ear bores)” value ([1]; 6.25 μg/ear topical in acetone with RTX 0.1 μg/ear) was 6.5* and the “Mean edema (weight of left ear minus right ear bores)” value ([1]; 12.5 μg/ear topical in acetone with RTX 0.1 μg/ear) was 3.2*. For the same molecule, the “Mean edema (weight of left ear minus right ear bores)” value ([1]; 25 μg/ear topical in acetone with RTX 0.1 μg/ear) was 1.7*, the “Mean edema (weight of left ear minus right ear bores)” value ([1]; 50 μg/ear topical in acetone with RTX 0.1 μg/ear) was 1.0* and the “Redness or swelling after overnight exposure” value ([2]; 50 μg/ear, overnight exposure, compared to controls) was “did not result in any discernable redness or swelling”. The “Coloration on test ears” value ([2]; in acetone alone and in combination with PMA or RTX, from beginning to end of the experiments) was “did not exhibit any discernable coloration”, the “Mean edema (difference in weight between left and right ear bores)” value ([3]; 3.12 μg/ear topical with PMA 2.0 μg/ear) was 10.0** and the “Mean edema (difference in weight between left and right ear bores)” value ([3]; 6.25 μg/ear topical with PMA 2.0 μg/ear) was 9.7**. For the same molecule, the “Mean edema (difference in weight between left and right ear bores)” value ([3]; 12.5 μg/ear topical with PMA 2.0 μg/ear) was 8.6*, the “Mean edema (difference in weight between left and right ear bores)” value ([3]; 25 μg/ear topical with PMA 2.0 μg/ear) was 5.9* and the “Mean edema (difference in weight between left and right ear bores)” value ([3]; 50 μg/ear topical with PMA 2.0 μg/ear) was 3.4*.
